# Results: patent US7741521B2, “Inhibition of bid-induced cell-death using small organic molecules” (The Burnham Institute, priority 2004, dated 2010)
# Target: T1, BID (Mus musculus, UniProt P70444)
# T1 construct: poly-His (N); made in house; host or cells: E. coli BL21
# T1 sequence (P70444 1-195): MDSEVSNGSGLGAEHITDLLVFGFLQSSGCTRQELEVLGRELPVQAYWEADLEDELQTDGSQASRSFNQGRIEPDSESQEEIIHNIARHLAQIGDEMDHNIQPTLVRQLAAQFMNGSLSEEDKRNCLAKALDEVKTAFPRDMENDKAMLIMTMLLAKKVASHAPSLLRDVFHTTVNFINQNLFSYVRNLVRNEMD
# Assay: NMR binding to BID (HSQC/TROSY chemical shifts)
# Description: Recombinant full length mouse BID was produced from a pET-19b (Novagen) plasmid construct containing the entire nucleotide sequence for BID fused to an N-terminal poly-His tag. Unlabeled BID was expressed in E. coli BL21 in LB media at 37° C., with an induction period of 3-4 hours with 1 mM IPTG. ^15N-labeled BID was similarly produced, with growth occurring in M9 media supplemented with 0.5 g/L ^15NH4Cl. ε-^13C-Met labeled BID was produced in M9 media supplemented with 50 mg/L of ε-^13C-Met at time of induction with IPTG. Following cell lysis, soluble BID was purified over a Hi-Trap chelating column (Amersham, Pharmacia), followed by ion-exchange purification with a MonoQ (Amersham, Pharmacia) column. Final BID samples were dialyzed into a buffer appropriate for the subsequent experiments. tBID was produced by cleavage of purified BID with caspase-8, as known in the art.
# For all NMR experiments, BID was exchanged into 50 mM phosphate buffer at pH 7.5 and measurements were performed at 30° C. 2D [^15N,^1H]-TROSY spectra for BID were measured with 0.5 mM samples of ^15N-labeled BID. 2D [^13C,^1H]-HSQC spectra were measured with 0.2 mM samples of ε-^13C-Met labeled BID. 2D [^1H,^1H]-NOESY spectra were acquired with small molecules at a concentration of 0.9 mM in the presence of 10 μM BID. T1ρ competition experiments (200 msec spin-lock duration) were performed on either 100 μM BI-2A7 or a mixture of 100 μM BI-2A7 and 10 μM BI-6C9, in the presence and absence of 10 μM BID. All experiments were performed with either a 500 MHz or 600 MHz Bruker Avance spectrometer, both equipped with TXI probes. Typical parameters for the 2D [^15N,^1H]-TROSY spectra included ^1H and ^15N π/2 pulse lengths of 11 μsec and 40 μsec, respectively; ^1H and ^15N sweep widths of 12 ppm and 32 ppm, respectively; 16 scans and 256 indirect acquisition points and a recycle delay of 1 sec. For the 2D [^13C,^1H]-HSQC typical parameters included ^1H and ^13C π/2 pulse lengths of 10 μsec and 13 μsec, respectively; ^1H and ^13C sweep widths of 12 ppm and 5 ppm, respectively; 128 scans and 80 indirect acquisition points and a recycle delay of 1 sec. […]
# To examine the binding affinity of some compounds of the invention to BID, 2D [^13C,^1H]-HSQC spectra in presence of ^13C methionine-labeled protein were measured, as at least one methionine is present in the hydrophobic groove of BID (FIG. 4B). […]
# Monitoring the variation of cross-peak intensity upon addition of increasing amounts of compound II, allowed to estimate its dissociation constant KD. The arrow on FIG. 5C indicates the peak that was monitored to determine the Kd for compound II. […]
SMILES,"specific binding to BID, affinity range (2D [15N-1H]-TROSY chemical shift perturbations)",binding to BID (NMR),"Kd (2D [13C,1H]-HSQC, 13C methionine-labeled BID, cross-peak intensity upon titration, read-out: dissociation constant KD)"
"Nc1ccc(Sc2ccc(NC(=O)CNC(=O)c3ccc(O)cc3O)cc2)cc1 [Compound I, N-((4-(4-aminophenylthio)phenylcarbamoyl)methyl)-2,4-dihydroxybenzamide]",low micromolar range,strong binder,–
"COc1ccc(S(=O)(=O)NCCCC(=O)Nc2ccc(Sc3ccc(N)cc3)cc2)cc1 [Compound II, N-[4-(4-amino-phenylsulfanyl)-phenyl]-4-(4-methoxy-benzenesulfonylamino)-butyramide]",–,–,~20 µM
